Measurements: patent US20080293691A1, “Treatment Method” (SMITHKLINE BEECHAM CORPORATION, priority 2005, published 2008)

What was measured:
[1] = test system: choroidal neovascularization (CNV); experiment: Prevention model for CNV (treatment begun before laser-induced retinal injury in mice); type: in vivo; details: oral twice daily from one day before retinal burning, 100 mg/kg Example 1, 45 mg/kg Example 3, or both, read fourteen days after burning, FIG. 2
Experimental: See the Examples section for additional information.
(§1) Mice were anesthetized and the pupils were dilated. Burns of krypton laser photocoagulation were delivered to the retina. Administration of the compound described in Example 1 was initiated seven days after the laser-induced injury. Oral doses of either the vehicle alone or vehicle containing the compound of formula (I) (designated as VEGF R in FIG. 1) at a dose or 4 mg/kg, 20 mg/kg, or 100 mg/kg were administered twice daily for seven days. After seven day of treatment, the mice were perfused with fluorescein-labeled dextran, and the area of choroidal neovascularization was quantitated.
In this experiment, the compound described in Example 1 (Designated as VEGF R in FIG. 2), Example 3 (designated as vitronectin in FIG. 2), or a combination of the compounds described in Example 1 and Example 3 (designated as “both” in FIG. 2) were administered to each mouse beginning one day before retinal burning was performed according to the methods described in Example 4. The compounds were administered orally twice daily at a dosage of 100 mg/kg for the compound of Example 1 or 45 mg/kg for the compound of Example 3. Fourteen days after the retinal burning, the CNV area was quantitated as described above.

[2] = test system: choroidal neovascularization (CNV); experiment: Regression model for CNV (laser-induced choroidal neovascularization in mice); type: in vivo; details: oral 4, 20 or 100 mg/kg twice daily for seven days, started seven days after laser-induced injury, compared with vehicle/untreated
Text: In this regression model, CNV was induced in mice by laser burns on the posterior pole of the retina. Seven days after the laser-induced injury, the mice began a regime in which they were given either vehicle alone or 5-[[4-[(2,3-Dimethyl-2H-indazol-6-yl)methylamino]-2-pyrimidinyl]amino]-2-methylbenzenesulfonamide at the indicated doses. Seven days after this regime was initiated, the size of the CNV lesions was quantitated. See the Examples section for additional information.
as §1

SMILES | CNV area (size of choroidal neovascular lesions) [1] | area of choroidal neovascularization (size of CNV lesions) ([2]; FIG. 1) | area of choroidal neovascularization (size of CNV lesions) ([2]; FIG. 1, listed as Pazopanib)
O=C(O)C[C@@H]1Cc2ccc(OCCCNc3ccccn3)cc2CN(CC(F)(F)F)C1=O [Example 3, (S)-3-oxo-8-[3-(pyridin-2-ylamino)-1-propyloxy]-2-(2,2,2-trifluoroethyl)-2,3,4,5-tetrahydro-1H-2-benzazepine-4-acetic acid] | a decrease in size of the resulting choroidal neovascular lesions | – | –
Cc1ccc(Nc2nccc(N(C)c3ccc4c(C)n(C)nc4c3)n2)cc1S(N)(=O)=O [pazopanib, 5-({4-[(2,3-dimethyl-2H-indazol-6-yl)(methyl)amino]pyrimidin-2-yl}amino)-2-methylbenzenesulfonamide] | a decrease in size of the resulting choroidal neovascular lesions | a decrease in the size of the resulting choroidal neovascular lesions | decreased the CNV area in a dose-specific manner
